From the CheMixHub viscosity set
± gives the uncertainty stated by the source.

Experiment: xn = mol fraction of the nth substance listed

C=CC#N + ClC(Cl)(Cl)Cl
viscosity [mPa·s], 101 kPa
Settings	293.15 K	298.15 K	303.15 K	313.15 K	323.15 K
x1 = 0.007	0.988 ± 0.026	0.911 ± 0.024	0.847 ± 0.022	0.749 ± 0.02	0.671 ± 0.018
x1 = 0.028	0.979 ± 0.026	0.903 ± 0.024	0.841 ± 0.022	0.772 ± 0.02	0.695 ± 0.018
x1 = 0.126	0.853 ± 0.022	0.783 ± 0.02	0.721 ± 0.019	0.661 ± 0.017	0.616 ± 0.016

CC(C)(C)Br + CCCCO
viscosity [mPa·s], 101.3 kPa
Settings	x1 = 0.0518	x1 = 0.106	x1 = 0.2079	x1 = 0.3109	x1 = 0.4067	x1 = 0.5054	x1 = 0.6023	x1 = 0.7004	x1 = 0.7993	x1 = 0.901
298.15 K	2.264 ± 0.016	2.002 ± 0.015	1.638 ± 0.013	1.377 ± 0.011	1.203 ± 0.01	1.055 ± 0.0094	0.9468 ± 0.0089	0.8591 ± 0.0087	0.7905 ± 0.0085	0.7428 ± 0.0085
313.15 K	1.575 ± 0.013	1.41 ± 0.012	1.19 ± 0.0098	1.02 ± 0.0087	0.9075 ± 0.0081	0.8127 ± 0.0075	0.7355 ± 0.0072	0.6723 ± 0.007	0.6264 ± 0.0069	0.5951 ± 0.007

CCCCN(CCCC)CCCC + CCC(C)O
303.15 K, 101 kPa
Settings	viscosity [mPa·s]
x1 = 0.01127	2.456 ± 0.016
x1 = 0.0218	2.439 ± 0.016
x1 = 0.03265	2.423 ± 0.016
x1 = 0.04214	2.409 ± 0.016
x1 = 0.04957	2.399 ± 0.016
x1 = 0.05793	2.387 ± 0.016
x1 = 0.06851	2.372 ± 0.016
x1 = 0.07785	2.359 ± 0.016
x1 = 0.08821	2.345 ± 0.016

CCCCN(CCCC)CCCC + CCCCOCCO
viscosity [mPa·s], 100 kPa
Settings	298.15 K	303.15 K	308.15 K
x2 = 0.05	1.31 ± 0.03	1.19 ± 0.03	1.12 ± 0.03
x2 = 0.1004	1.37 ± 0.03	1.23 ± 0.03	1.15 ± 0.03
x2 = 0.1502	1.43 ± 0.03	1.28 ± 0.03	1.19 ± 0.03
x2 = 0.2006	1.49 ± 0.03	1.33 ± 0.03	1.23 ± 0.03
x2 = 0.2999	1.62 ± 0.03	1.43 ± 0.03	1.32 ± 0.03
x2 = 0.3999	1.76 ± 0.03	1.54 ± 0.03	1.43 ± 0.03
x2 = 0.5046	1.93 ± 0.03	1.69 ± 0.03	1.55 ± 0.03
x2 = 0.6	2.1 ± 0.03	1.83 ± 0.03	1.67 ± 0.03
x2 = 0.7	2.29 ± 0.03	1.99 ± 0.03	1.8 ± 0.03
x2 = 0.8	2.5 ± 0.03	2.16 ± 0.03	1.96 ± 0.03
x2 = 0.8997	2.7 ± 0.03	2.36 ± 0.03	2.14 ± 0.03
x2 = 0.9498	2.79 ± 0.03	2.43 ± 0.03	2.21 ± 0.03

CCCCN(CCCC)CCCC + CCCCCCCCO
viscosity [mPa·s], 101.3 kPa
Settings	x1 = 0.0904	x1 = 0.1906	x1 = 0.2864	x1 = 0.4192	x1 = 0.5184	x1 = 0.6196	x1 = 0.7144	x1 = 0.8124	x1 = 0.8987
303.15 K	5.287 ± 0.058	4.464 ± 0.05	3.765 ± 0.042	2.935 ± 0.033	2.43 ± 0.028	2.025 ± 0.023	1.723 ± 0.02	1.487 ± 0.018	1.33 ± 0.016
313.15 K	3.767 ± 0.043	3.171 ± 0.036	2.698 ± 0.031	2.185 ± 0.025	1.872 ± 0.022	1.619 ± 0.019	1.424 ± 0.017	1.25 ± 0.015	1.128 ± 0.014

CC(C)(N)CO + CCO
313.15 K, 100 kPa
Settings	viscosity [mPa·s]
x1 = 0.03	0.91 ± 0.06
x1 = 0.054	1.05 ± 0.06
x1 = 0.11	1.3 ± 0.08
x1 = 0.26	2.32 ± 0.14

CCCCN(CCCC)CCCC + CCCCCCCO
viscosity [mPa·s], 101.3 kPa
Settings	x1 = 0.1067	x1 = 0.1877	x1 = 0.2841	x1 = 0.4197	x1 = 0.5183	x1 = 0.619	x1 = 0.7191	x1 = 0.8008	x1 = 0.89
303.15 K	4.133 ± 0.046	3.677 ± 0.041	3.178 ± 0.036	2.558 ± 0.029	2.191 ± 0.025	1.881 ± 0.022	1.644 ± 0.019	1.482 ± 0.017	1.328 ± 0.016
313.15 K	3.033 ± 0.035	2.69 ± 0.031	2.355 ± 0.027	1.956 ± 0.023	1.709 ± 0.02	1.497 ± 0.018	1.33 ± 0.016	1.217 ± 0.015	1.1 ± 0.013

CCCC[P+](CC)(CC)CC.N#Cc1ccc[n-]1 + OCC(O)CO
100 kPa
Settings	viscosity [mPa·s]
293.15 K, x1 = 0.259	933 ± 140
293.15 K, x1 = 0.34	737 ± 110
298.15 K, x1 = 0.004	876 ± 130
298.15 K, x1 = 0.018	953 ± 140
298.15 K, x1 = 0.129	932 ± 140
298.15 K, x1 = 0.187	768 ± 120
303.15 K, x1 = 0.058	695 ± 100
303.15 K, x1 = 0.08	692 ± 100

C=CC#N + CC#N
303.15 K, 101.3 kPa
Settings	viscosity [mPa·s]
x1 = 0.0965	0.3219 ± 0.0031
x1 = 0.2002	0.3193 ± 0.0031
x1 = 0.2977	0.3185 ± 0.0031
x1 = 0.3966	0.3178 ± 0.0031
x1 = 0.4928	0.3169 ± 0.003
x1 = 0.5983	0.3154 ± 0.003
x1 = 0.6941	0.3147 ± 0.003
x1 = 0.7977	0.3136 ± 0.003
x1 = 0.8997	0.3124 ± 0.003

C=CC#N + CCOC(C)=O
viscosity [mPa·s]
Settings	298.15 K	303.15 K	308.15 K
101.3 kPa, x1 = 0.0974	–	0.3987 ± 0.0034	–
101.3 kPa, x1 = 0.201	–	0.394 ± 0.0034	–
101.3 kPa, x1 = 0.302	–	0.3883 ± 0.0033	–
101.3 kPa, x1 = 0.3997	–	0.3824 ± 0.0033	–
101.3 kPa, x1 = 0.4964	–	0.3739 ± 0.0033	–
101.3 kPa, x1 = 0.5946	–	0.3654 ± 0.0032	–
101.3 kPa, x1 = 0.6974	–	0.3546 ± 0.0032	–
101.3 kPa, x1 = 0.7978	–	0.3413 ± 0.0031	–
101.3 kPa, x1 = 0.9018	–	0.3263 ± 0.0031	–
101.33 kPa, x1 = 0.1002	0.442 ± 0.013	0.419 ± 0.012	0.398 ± 0.012
101.33 kPa, x1 = 0.2025	0.429 ± 0.013	0.403 ± 0.012	0.383 ± 0.012
101.33 kPa, x1 = 0.3034	0.42 ± 0.012	0.397 ± 0.012	0.377 ± 0.011
101.33 kPa, x1 = 0.4047	0.408 ± 0.012	0.387 ± 0.012	0.369 ± 0.011
101.33 kPa, x1 = 0.5034	0.4 ± 0.012	0.379 ± 0.011	0.361 ± 0.011
101.33 kPa, x1 = 0.5994	0.39 ± 0.012	0.368 ± 0.011	0.352 ± 0.011
101.33 kPa, x1 = 0.7007	0.381 ± 0.011	0.364 ± 0.011	0.351 ± 0.011
101.33 kPa, x1 = 0.8021	0.369 ± 0.011	0.358 ± 0.011	0.344 ± 0.011
101.33 kPa, x1 = 0.9003	0.358 ± 0.011	0.349 ± 0.011	0.328 ± 0.01

CCCCN(CCCC)CCCC + CCCCCO
viscosity [mPa·s], 101.3 kPa
Settings	x1 = 0.0945	x1 = 0.1881	x1 = 0.2845	x1 = 0.3843	x1 = 0.4829	x1 = 0.6148	x1 = 0.7041	x1 = 0.798	x1 = 0.8912
303.15 K	2.622 ± 0.03	2.405 ± 0.028	2.18 ± 0.025	1.961 ± 0.023	1.786 ± 0.021	1.581 ± 0.019	1.458 ± 0.017	1.365 ± 0.016	1.262 ± 0.015
313.15 K	2.122 ± 0.025	1.91 ± 0.022	1.714 ± 0.02	1.551 ± 0.018	1.415 ± 0.017	1.266 ± 0.015	1.188 ± 0.014	1.118 ± 0.014	1.054 ± 0.013

CCC(C)(C)O + O
298.15 K, 101 kPa
Settings	viscosity [mPa·s]
x2 = 0.0042	3.548 ± 0.033
x2 = 0.0429	3.711 ± 0.036
x2 = 0.0863	3.875 ± 0.04
x2 = 0.124	3.987 ± 0.043
x2 = 0.1654	4.122 ± 0.047
x2 = 0.197	4.218 ± 0.05
x2 = 0.214	4.269 ± 0.051
x2 = 0.2583	4.388 ± 0.056
x2 = 0.2775	4.443 ± 0.058

CN(C)c1ccccc1 + O=[N+]([O-])c1ccccc1
298.15 K, 101 kPa
Settings	viscosity [mPa·s]
x2 = 0.1239	1.337 ± 0.024
x2 = 0.2063	1.355 ± 0.026
x2 = 0.5628	1.488 ± 0.033
x2 = 0.6512	1.565 ± 0.036
x2 = 0.8325	1.702 ± 0.042
x2 = 0.9168	1.766 ± 0.045
